Reference: patent publication US10471029B2, “Methods for treating neurological disorders” (Alzheon, Inc., priority 2014, dated 2019)
Like-named read-outs stand apart in the source and are kept apart here.

Legend:
[1] = Plasma and brain exposure of tramiprosate after oral Val-APS or tramiprosate in animals (FIG. 4); type: in vivo; conditions: Val-APS prodrug versus tramiprosate
Excerpt: L-Valyl-3-aminopropanesulfonate (Val-APS) is an orally available small molecule prodrug of tramiprosate with improved pharmaceutical properties. Tramiprosate was advanced to a ˜2,000 patient Phase 3 program which completed in 2007. […] Thus the present disclosure provides for administration of certain compounds including val-APS to ApoE4-positive patients for the treatment of Alzheimer's Disease.
The AUC ratio of brain tramiprosate exposure due to Val-APS compared to tramiprosate is ˜2.1.

[2] = Tolerability of Val-APS prodrug over tramiprosate; type: in vivo
[3] = human, in vivo
[4] = test system: Alzheimer's Disease patients; assay: ADAS-Cog score following treatment of Alzheimer's Disease patients with tramiprosate, retrospective subgroup analysis in 599 ApoE4+ subjects (FIGS. 1-2); type: in vivo, human; conditions: through 18 months, 150 mg BID, n=183, on top of acetylcholinesterase inhibitors and/or memantine
Protocol: FIG. 1 illustrates reduced ADAS-Cog score following treatment of Alzheimer's Disease patients with tramiprosate. At 26 weeks−1.25 (82%) P=0.0219 for 100 mg BID, −1.03 (57%), P=0.118 for 150 mg BID. At 52 weeks−2.03 (35%) P=0.002 for 100 mg BID, −1.85 (32%), P=0.006 for 150 mg BID. At 65 weeks−1.52 (22%) P=0.024 for 100 mg BID, −1.90 (27%) P=0.005 for 150 mg BID. At 78 weeks−1.90 (27%) P=0.005 for 100 mg BID, −1.86 (21%) P=0.028 for 150 mg BID. (n=599). Data derived from Caltagirone et al., “The potential protective effect of tramiprosate (homotaurine) against Alzheimer's disease: a review,” Aging Clin Exp Res. 2012 December; 24(6):580-7.
In certain embodiments, the efficacy of a compound may be determined through the ADAS-cog (Alzheimer's Disease Assessment Scale-cognitive subscale). ADAS was designed to measure the severity of the most important symptoms of Alzheimer's disease (AD). Its subscale ADAS-cog is the most popular cognitive testing instrument used in clinical trials of nootropics. It consists of 11 tasks measuring the disturbances of memory, language, praxis, attention and other cognitive abilities which are often referred to as the core symptoms of AD. The ADAS-Cog helps evaluate cognition and differentiates between normal cognitive functioning and impaired cognitive functioning. […]

[5] = test system: Alzheimer's Disease patients; assay: ADAS-Cog by ApoE4 subgroup in merged dataset; type: in vivo, human; conditions: for Change in ADAS-Cog Slope vs placebo / Change in ADAS-Cog Week 78 / ADAS-Cog Slope vs placebo / ADAS-Cog Week 78: merged dataset; for Change in ADAS-Cog Slope vs placebo / Change in ADAS-Cog Week 78: <80 years old
Excerpt: (§1) In certain embodiments, the efficacy of a compound may be determined through the ADAS-cog (Alzheimer's Disease Assessment Scale-cognitive subscale). ADAS was designed to measure the severity of the most important symptoms of Alzheimer's disease (AD). Its subscale ADAS-cog is the most popular cognitive testing instrument used in clinical trials of nootropics. It consists of 11 tasks measuring the disturbances of memory, language, praxis, attention and other cognitive abilities which are often referred to as the core symptoms of AD. The ADAS-Cog helps evaluate cognition and differentiates between normal cognitive functioning and impaired cognitive functioning. It is especially useful for determining the extent of cognitive decline and can help evaluate which stage of Alzheimer's disease a person is in, based on their answers and score. The ADAS-Cog can be used in clinical trials in order to determine incremental improvements or declines in cognitive functioning.
(§2) Patients were administered 3APS at 150 mg BID and 100 mg BID or were provided a placebo. ADAS-Cog results were measured. The data establish that the decline in score is delayed by 3APS. At 13 weeks a small improvement in ADAS-cog was observed. Over time, the difference increased.

[6] = test system: Alzheimer's Disease patients; assay: Change in ADAS-Cog by ApoE status in North American Trial; type: in vivo, human; conditions: for Change in ADAS-Cog Slope vs placebo / Change in ADAS-Cog Week 78: North American Trial
Excerpt: as §1, §2
Patients were administered 3APS and ADAS-Cog results were obtained at various timepoints. Patients were then genotyped to detect the presence of ApoE4 alleles. FIG. 8 illustrates the advantageous effects of tramiprosate, the active agent of Val-APS, in certain sub-populations segregated based on Apo E4 status. […] Data is presented at 13 weeks, 26 weeks, 39 weeks, 52 weeks, 65 weeks, and 78 weeks. […] ApoE4 prevalence correlates with improved cognition scores.

[7] = test system: Alzheimer's Disease patients; assay: CDR-SB (function) in ApoE4+ subjects (FIG. 3); type: in vivo, human; conditions: through 18 months, 150 mg BID, n=183, on top of acetylcholinesterase inhibitors and/or memantine
[8] = test system: Alzheimer's Disease patients; conditions: n=599, cited from earlier work

Q: Which “accumulation in the brain” value [1] does the source give for `CC(C)[C@H](N)C(=O)NCCCS(=O)(=O)O` [Val-APS, L-Valyl-3-aminopropanesulfonate] here?
A: improved

Q: And the GI tolerability [2]?
A: improved

Q: What about the “nausea & vomiting” value [2] of the same compound?
A: reduced

Q: What about the “formation of metabolite NRM5074” value [3] of the same compound?
A: reduced

Q: And the “inter-subject PK variability” value [3]?
A: decreased

Q: What about the t½ [3] of the same compound?
A: 14.9 ±3.9

Q: Which “cognition (ADAS-cog)” value [4] does the source give for `NCCCS(=O)(=O)O` [Compound 3APS, 3-amino-1-propanesulfonic acid] here?
A: clinically meaningful improvement

Q: What about the “decline in ADAS-Cog score” value ([5]; 150 mg BID and 100 mg BID versus placebo) of the same compound?
A: delayed

Q: And the “Change in ADAS-Cog Slope vs placebo” value ([5]; ApoE4+, 100 mg BID)?
A: −3.92

Q: And the “Change in ADAS-Cog Week 78” value ([5]; ApoE4+, 100 mg BID)?
A: −1.13

Q: And the “Change in ADAS-Cog Slope vs placebo” value ([5]; ApoE4+, 150 mg BID)?
A: −8.65

Q: What about the “Change in ADAS-Cog Week 78” value ([5]; ApoE4+, 150 mg BID) of the same compound?
A: −2.17

Q: What about the “Change in ADAS-Cog Slope vs placebo” value ([5]; ApoE4−, 100 mg BID) of the same compound?
A: −4.40

Q: What about the “Change in ADAS-Cog Week 78” value ([5]; ApoE4−, 100 mg BID) of the same compound?
A: −2.54

Q: And the “Change in ADAS-Cog Slope vs placebo” value ([5]; ApoE4−, 150 mg BID)?
A: −2.81

Q: And the “Change in ADAS-Cog Week 78” value ([5]; ApoE4−, 150 mg BID)?
A: −0.93

Q: What about the “Change in ADAS-Cog Slope vs placebo” value ([5]; Total, 100 mg BID) of the same compound?
A: −3.94

Q: What about the “Change in ADAS-Cog Week 78” value ([5]; Total, 100 mg BID) of the same compound?
A: −1.55

Q: What about the “Change in ADAS-Cog Slope vs placebo” value ([5]; Total, 150 mg BID) of the same compound?
A: −6.37

Q: And the “Change in ADAS-Cog Week 78” value ([5]; Total, 150 mg BID)?
A: −1.66

Q: What about the “ADAS-Cog Slope vs placebo” value ([5]; ApoE4+, 100 mg BID) of the same compound?
A: −3.61

Q: What about the “ADAS-Cog Week 78” value ([5]; ApoE4+, 100 mg BID) of the same compound?
A: −1.09

Q: And the “ADAS-Cog Slope vs placebo” value ([5]; ApoE4+, 150 mg BID)?
A: −7.09

Q: What about the “ADAS-Cog Week 78” value ([5]; ApoE4+, 150 mg BID) of the same compound?
A: −1.73

Q: And the “ADAS-Cog Slope vs placebo” value ([5]; ApoE4−, 100 mg BID)?
A: −2.45

Q: What about the “ADAS-Cog Week 78” value ([5]; ApoE4−, 100 mg BID) of the same compound?
A: −1.92

Q: What about the “ADAS-Cog Slope vs placebo” value ([5]; ApoE4−, 150 mg BID) of the same compound?
A: 0.35

Q: And the “ADAS-Cog Week 78” value ([5]; ApoE4−, 150 mg BID)?
A: −0.66

Q: What about the “ADAS-Cog Slope vs placebo” value ([5]; Total, 100 mg BID) of the same compound?
A: −3.18

Q: What about the “ADAS-Cog Week 78” value ([5]; Total, 100 mg BID) of the same compound?
A: −1.34

Q: What about the “ADAS-Cog Slope vs placebo” value ([5]; Total, 150 mg BID) of the same compound?
A: −4.19

Q: What about the “ADAS-Cog Week 78” value ([5]; Total, 150 mg BID) of the same compound?
A: −1.27

Q: What about the “Change in ADAS-Cog Slope vs placebo” value ([6]; ApoE4+ and ++, 100 mg BID) of the same compound?
A: −1.43

Q: What about the “Change in ADAS-Cog Week 78” value ([6]; ApoE4+ and ++, 100 mg BID) of the same compound?
A: −0.81

Q: What about the “Change in ADAS-Cog Slope vs placebo” value ([6]; ApoE4+ and ++, 150 mg BID) of the same compound?
A: −7.49

Q: And the “Change in ADAS-Cog Week 78” value ([6]; ApoE4+ and ++, 150 mg BID)?
A: −1.67

Q: And the “Change in ADAS-Cog Slope vs placebo” value ([6]; ApoE4++, 100 mg BID)?
A: −4.33

Q: What about the “Change in ADAS-Cog Week 78” value ([6]; ApoE4++, 100 mg BID) of the same compound?
A: −1.49

Q: And the “Change in ADAS-Cog Slope vs placebo” value ([6]; ApoE4++, 150 mg BID)?
A: −19.79

Q: And the “Change in ADAS-Cog Week 78” value ([6]; ApoE4++, 150 mg BID)?
A: −4.63

Q: And the “Change in ADAS-Cog Slope vs placebo” value ([6]; ApoE4−, 100 mg BID)?
A: −2.04

Q: What about the “Change in ADAS-Cog Week 78” value ([6]; ApoE4−, 100 mg BID) of the same compound?
A: −1.23

Q: What about the “Change in ADAS-Cog Slope vs placebo” value ([6]; ApoE4−, 150 mg BID) of the same compound?
A: 3.57

Q: And the “Change in ADAS-Cog Week 78” value ([6]; ApoE4−, 150 mg BID)?
A: 0.59

Q: And the “Change in ADAS-Cog Slope vs placebo” value ([6]; Total, 100 mg BID)?
A: −1.75

Q: And the “Change in ADAS-Cog Week 78” value ([6]; Total, 100 mg BID)?
A: −0.93

Q: What about the “Change in ADAS-Cog Slope vs placebo” value ([6]; Total, 150 mg BID) of the same compound?
A: −3.32

Q: And the “Change in ADAS-Cog Week 78” value ([6]; Total, 150 mg BID)?
A: −0.83

Q: What about the “improvement versus placebo on cognition” value ([6]; homozygous ApoE4 subjects, 150 mg BID, n=34) of the same compound?
A: 4 point

Q: And the “improvement versus placebo on the ADAS-cog” value ([6]; homozygous ApoE4 subjects, 150 mg BID, n=34, after 18 months of treatment)?
A: 4.62 points

Q: And the “function (CDR-SB)” value [7]?
A: clinically meaningful improvement

Q: What about the “ADAS-Cog score, percent in brackets” value ([8]; 26 weeks, 100 mg BID) of the same compound?
A: 82%

Q: What about the ADAS-Cog score ([8]; 26 weeks, 150 mg BID) of the same compound?
A: −1.03

Q: What about the “ADAS-Cog score, percent in brackets” value ([8]; 26 weeks, 150 mg BID) of the same compound?
A: 57%

Q: And the “ADAS-Cog score, percent in brackets” value ([8]; 52 weeks, 100 mg BID)?
A: 35%

Q: What about the ADAS-Cog score ([8]; 52 weeks, 150 mg BID) of the same compound?
A: −1.85

Q: And the “ADAS-Cog score, percent in brackets” value ([8]; 52 weeks, 150 mg BID)?
A: 32%

Q: And the “ADAS-Cog score, percent in brackets” value ([8]; 65 weeks, 100 mg BID)?
A: 22%

Q: And the ADAS-Cog score ([8]; 65 weeks, 150 mg BID)?
A: −1.90

Q: What about the “ADAS-Cog score, percent in brackets” value ([8]; 65 weeks, 150 mg BID) of the same compound?
A: 27%

Q: And the ADAS-Cog score ([8]; 78 weeks, 100 mg BID)?
A: −1.90

Q: And the “ADAS-Cog score, percent in brackets” value ([8]; 78 weeks, 100 mg BID)?
A: 27%

Q: And the ADAS-Cog score ([8]; 78 weeks, 150 mg BID)?
A: −1.86

Q: What about the “ADAS-Cog score, percent in brackets” value ([8]; 78 weeks, 150 mg BID) of the same compound?
A: 21%
